Where two headings read alike, the source gives them in different places.
What was measured:
Micrococcus luteus B-109 = test: Agar-well diffusion, bactericidal activity; type: cell-based; settings: Micrococcus luteus
Outline: (§1)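 Bacteria spread on agar (BP medium; GYCa for X. campestris; pH 7.2–7.4) with 6-mm wells, each receiving 150 μL compound solution. Cultures grown at 28 °C; growth-inhibition zone width measured after 36–40 h.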

[1] = tested on: Pectobacterium atrosepticum 1043; test: Agar-well diffusion, bactericidal activity; type: cell-based; settings: Pectobacterium atrosepticum, 1043, 2 mM/L
Outline: as §1

[2] = tested on: Pectobacterium carotovorum subsp. carotovorum MI; test: Agar-well diffusion, bactericidal activity; type: cell-based; settings: Pectobacterium carotovorum, 2 mM/L
Outline: as §1

[3] = tested on: Pseudomonas fluorescens EL-2.1; test: Agar-well diffusion, bactericidal activity; type: cell-based; settings: Pseudomonas fluorescens, EL2.1, 2 mM/L
Outline: as §1

[4] = tested on: Xanthomonas campestris B-610; test: Agar-well diffusion, bactericidal activity; type: cell-based; settings: Xanthomonas campestris
Outline: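 Agar-well diffusion on GYCa agar (pH 7.2–7.4) seeded with bacterial suspension; 150 μL compound solution placed in 6-mm wells. Inhibition zone width measured after 36–40 h incubation.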

[5] = tested on: five representative phytopathogens; test: Agar-well diffusion, bactericidal activity over the panel of phytopathogens; type: cell-based
Outline: as §1

[6] = tested on: Fusarium oxysporum IBPPM 543; test: Mycelial radial growth inhibition; type: cell-based; settings: Fusarium oxysporum; for inhibition of growth at 1 µM: 1 nmol/mL; for inhibition of growth at 1 µM / inhibition of growth at 5 µM / inhibition of growth at 20 µM / inhibition of growth at 40 µM: read-out: Inhibition value, I (%); for inhibition of growth at 5 µM: 5 nmol/mL; for inhibition of growth at 20 µM: 20 nmol/mL; for inhibition of growth at 40 µM: 40 nmol/mL
Outline: (§2)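 Compounds mixed into molten GPY agar at various concentrations; centre inoculated with a 5-mm mycelial plug from 10-day cultures and incubated at 27 °C. Colony diameter compared with untreated control until control plate was covered (usually 12 days); ≥4 replicates in two experiments.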

[7] = tested on: Phytophthora cactorum VKM F-985; test: Mycelial radial growth inhibition; type: cell-based; settings: for inhibition of growth at 2 µM: 2 nmol/mL; for inhibition of growth at 2 µM / inhibition of growth at 3 µM / inhibition of growth / inhibition of growth at 40 µM / inhibition of growth at 50 µM: read-out: Inhibition value, I (%); for inhibition of growth at 3 µM: 3 nmol/mL; for inhibition of growth: 27 nmol/mL; for inhibition of growth at 40 µM: 40 nmol/mL; for inhibition of growth at 50 µM: 50 nmol/mL
Outline: as §2

[8] = Table S3, read-out: Inhibition zone width (mm), not less
[9] = IBPPM543, 72 h, age of the fungus 3 days
[10] = IBPPM543, 120 h, age of the fungus 5 days
[11] = IBPPM543, 168 h, age of the fungus 7 days
[12] = IBPPM543, 216 h, age of the fungus 9 days
[13] = Phytophthora cactorum, 72 h, age of the fungus 3 days
[14] = Phytophthora cactorum, 120 h, age of the fungus 5 days
[15] = Phytophthora cactorum, 168 h, age of the fungus 7 days
[16] = Phytophthora cactorum, 216 h, age of the fungus 9 days

With O=C(C[n+]1ccccc1)NN=C1C(=O)N(Cc2ccccc2F)c2ccc(F)cc21.[Cl-] [Compound 5a, 1-(2-(2-(5-Fluoro-1-(2-fluorobenzyl)-2-oxoindolin-3-ylidene)hydrazinyl)-2-oxoethyl)pyridin-1-ium chloride] the zone of inhibition at 2000 µM (Micrococcus luteus B-109; B109, 2 mM/L, average of 3 experiments, read-out: width of the inhibition zone (mm), M. luteus) was 4 mm, the zone of inhibition at 2000 µM (Micrococcus luteus B-109; B109, Table S3, 2 mM/L, read-out: Inhibition zone width (mm), not less) was no less than 4 mm and the zone of inhibition at 2000 µM ([1]; average of 3 experiments, read-out: width of the inhibition zone (mm), P. atrosepticum) was 6 mm. The zone of inhibition at 2000 µM [1, 8] was no less than 6 mm, the zone of inhibition at 2000 µM ([2]; average of 3 experiments, read-out: width of the inhibition zone (mm), P. carotovorum subsp. carotovorum) was 3 mm and the zone of inhibition at 2000 µM [2, 8] was no less than 3 mm. For the same molecule, the zone of inhibition at 2000 µM ([3]; average of 3 experiments, read-out: width of the inhibition zone (mm), Ps. fluorescens) was 4 mm, the zone of inhibition at 2000 µM [3, 8] was no less than 4 mm and the zone of inhibition at 2000 µM ([4]; B610, 2 mM/L, average of 3 experiments, read-out: width of the inhibition zone (mm), X. campestris) was 3.5 mm. The zone of inhibition at 2000 µM ([4]; B610, Table S3, 2 mM/L, read-out: Inhibition zone width (mm), not less) was no less than 3 mm, the zone of inhibition at 2000 µM ([5]; 36 h, 2 mM solutions, dependent on the test system used, read-out: inhibition zone width (mm), range over the test systems) was 3 to 6 mm and the “bactericidal activity” value ([5]; Table S2) was “moderate bactericidal activity”. For the same molecule, the inhibition of growth at 1 µM [6, 9] was 34%, the inhibition of growth at 5 µM [6, 9] was 39% and the inhibition of growth at 20 µM [6, 9] was 41%. It also gave an inhibition of growth at 40 µM [6, 9] of 52%, an EC50 ([6]; IBPPM543, 120 h, day 5, read-out: EC50, µg/mL at Day 5, F. oxysporum) of 13.8 µg/mL and an inhibition of growth at 1 µM [6, 10] of 25%. The inhibition of growth at 5 µM [6, 10] was 31%, the inhibition of growth at 20 µM [6, 10] was 45% and the inhibition of growth at 40 µM [6, 10] was 54%. For the same molecule, the inhibition of growth at 1 µM [6, 11] was 20%, the inhibition of growth at 5 µM [6, 11] was 23% and the inhibition of growth at 20 µM [6, 11] was 42%. For the same molecule, the inhibition of growth at 40 µM [6, 11] was 51%, the inhibition of growth at 1 µM [6, 12] was 7% and the inhibition of growth at 5 µM [6, 12] was 18%. For the same molecule, the inhibition of growth at 20 µM [6, 12] was 23%, the inhibition of growth at 40 µM [6, 12] was 36% and the “antagonistic effect superior to that of N-cetylpyridinium chloride” value ([7]; 5 days of growth) was 2.3 times. The “antagonistic effect superior to that of fludioxonil” value ([7]; 5 days of growth) was 2.0 times, the inhibition of growth at 2 µM [7, 13] was 26% and the inhibition of growth at 3 µM [7, 13] was 32%. The inhibition of growth [7, 13] was 40%, the inhibition of growth at 40 µM [7, 13] was 47% and the inhibition of growth at 50 µM [7, 13] was 52%. It also gave an EC50 ([7]; Phytophthora cactorum, 120 h, day 5, read-out: EC50, µg/mL at Day 5, P. cactorum) of 15 µg/mL, an inhibition of growth at 2 µM [7, 14] of 20% and an inhibition of growth at 3 µM [7, 14] of 32%. For the same molecule, the inhibition of growth [7, 14] was 44%, the inhibition of growth at 40 µM [7, 14] was 53% and the inhibition of growth at 50 µM [7, 14] was 62%. It also gave an inhibition of growth at 2 µM [7, 15] of 15%, an inhibition of growth at 3 µM [7, 15] of 28% and an inhibition of growth [7, 15] of 31%. The inhibition of growth at 40 µM [7, 15] was 43%, the inhibition of growth at 50 µM [7, 15] was 45% and the inhibition of growth at 2 µM [7, 16] was 8%. The inhibition of growth at 3 µM [7, 16] was 19%, the inhibition of growth [7, 16] was 25% and the inhibition of growth at 40 µM [7, 16] was 36%. The inhibition of growth at 50 µM [7, 16] was 38%, the “EC50, µg/mL at Day 5, P. cactorum” value ([7]; day 5) was 15.12 µg/mL and the melting point was 180 to 182 °C.
